The text below walks through data of ChEMBL document CHEMBL1201862, “PubChem BioAssay data set” (2004).

In test [1] the target is Mu-type opioid receptor (Homo sapiens, UniProt P35372). It is filed as functional, cell-based.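 Also: U2OS cells with beta-arrestin recruitment to OPRM1 by beta-gal complementation.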
The target of test [2] is 5-hydroxytryptamine receptor 2A (Mus musculus, UniProt P35363). Format: functional, cell-based.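 Also: CHO-K1 cells with tagged receptor and beta-arrestin; agonist potency measured as compound-induced activation of the receptor.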
Chain of 5-hydroxytryptamine receptor 2A (P35363 whole entry, the tested form may be a part): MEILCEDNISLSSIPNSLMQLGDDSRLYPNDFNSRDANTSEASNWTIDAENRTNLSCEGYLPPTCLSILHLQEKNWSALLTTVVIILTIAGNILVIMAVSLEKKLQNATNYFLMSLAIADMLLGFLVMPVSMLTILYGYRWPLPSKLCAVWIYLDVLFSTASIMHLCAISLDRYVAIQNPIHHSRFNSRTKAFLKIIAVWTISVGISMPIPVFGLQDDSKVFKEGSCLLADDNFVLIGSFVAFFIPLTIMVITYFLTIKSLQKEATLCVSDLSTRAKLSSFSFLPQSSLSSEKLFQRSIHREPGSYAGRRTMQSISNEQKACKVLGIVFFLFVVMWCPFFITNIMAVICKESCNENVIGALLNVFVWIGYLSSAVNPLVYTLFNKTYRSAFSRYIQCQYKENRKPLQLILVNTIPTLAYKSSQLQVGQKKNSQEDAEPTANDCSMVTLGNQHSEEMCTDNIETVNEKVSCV
The nature of test [3]: HIV-1 AD8 envelope cell-cell fusion blockers – cherry-pick, dose response (AID 652062).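 Also: luciferase signal from cell-cell fusion driven by HIV-1 clade B AD8 Env; potency is for inhibitors of fusion seen as a drop in luminescence.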 It is filed as functional, cell-based.
A short description of test [4]: blockers of HIV-1 envelope-mediated cell-cell fusion – cherry-pick, dose response (AID 652057). Format: functional, cell-based.
Test [5] is described as follows: blockers of HIV-1 ZM109 envelope-driven cell-cell fusion – HeLa effector, CEM target cells, luciferase, cherry-pick, dose response (AID 652058).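 Also: luciferase signal from HIV-1 Env mediated cell-cell fusion of effector and target cells.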 It is filed as functional, cell-based.
Test [6] can be described thus: off-target signal loss in HeLa-CEM21 co-culture – HeLa F-luc CTL cells, cherry-picked, counter-screen for HIV-1 Env fusion inhibitor project, dose response (AID 652040).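 Also: potency for signal decrease marking cytotoxic or nonspecific inhibition.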 It is filed as functional, cell-based. (In general: Counterscreens check selectivity or assay interference.)
A short description of test [7]: blockade of melanocortin 4 receptor signaling – cell-based, plate reader, cherry pick, counter-screen for LGR2 antagonist project, dose response (AID 743444).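 Also: transfected HEK 293 cells stimulated with alpha-MSH peptide; potency of inhibitors of the alpha-MSH evoked signal.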 It is filed as functional.
Test [8] is described as follows: blockers of bursicon-stimulated LGR2 cAMP reporter – cell-based, HEK293, CRE-luciferase reporter, cherry pick, set 2, dose response (AID 743343).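 Also: transfected cells were stimulated with diluted bursicon conditioned medium after compound addition.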 It is filed as functional. (A reporter such as luciferase makes a cellular process visible.)
Test [9] concerns the target T1, Fatty acid synthase (Homo sapiens, UniProt P49327). Description: inhibition of human FAS-TE enzyme activity – biochemical, endpoint fluorescence intensity, uHTS hits, dose response (AID 624327).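 Also: fluorescence from hydrolysis of an O-methyl fluorescein acyl ester substrate by the enzyme.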 Format: functional.
Test [10] is described as follows: toxicity toward HepG2 liver cells – cell-based, plate reader, cherry-pick, antagonist series, cytotoxicity control, dose response (AID 743416). Format: functional.
Test [11] has as its target T1, Fatty acid synthase. The test is described as follows: inhibition of human FAS-TE enzyme activity – biochemical, kinetic fluorescence intensity, dose response (AID 624326).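 Also: rate of fluorescence rise from hydrolysis of a fluorogenic O-methyl fluorescein ester substrate.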 It is filed as functional.
Test [12] is described as follows: cells. Format: functional, cell-based.
Test [13] addresses T2, Trace amine-associated receptor 1 (Homo sapiens, UniProt Q96RJ0).
T2 sequence (Q96RJ0 whole entry): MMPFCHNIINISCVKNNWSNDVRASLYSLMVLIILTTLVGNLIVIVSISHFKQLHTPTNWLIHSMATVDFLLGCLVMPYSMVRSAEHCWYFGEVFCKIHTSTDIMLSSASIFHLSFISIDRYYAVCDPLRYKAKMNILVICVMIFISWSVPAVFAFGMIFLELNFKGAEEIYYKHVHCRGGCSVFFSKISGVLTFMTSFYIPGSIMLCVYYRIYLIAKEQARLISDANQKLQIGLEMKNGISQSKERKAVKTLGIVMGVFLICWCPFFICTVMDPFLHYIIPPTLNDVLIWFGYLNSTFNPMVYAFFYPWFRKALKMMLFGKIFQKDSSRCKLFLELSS
Description: Counterscreen for agonists of the human trace amine associated receptor 1 (hTAAR1): Fluorescence-based cell-based high throughput dose response assay to identify hTAAR1 agonist that also desensitize TAAR1 receptor response. It is filed as functional.

Test [14] is described as follows: cells. Format: functional, cell-based. This is another data set of the same source.
Test [15] concerns the target T2, Trace amine-associated receptor 1. Description: Fluorescence-based cell-based high throughput dose response assay to identify agonists of the human trace amine associated receptor 1 (TAAR1). Format: functional.
A short description of test [16]: NIH-3T3 fibroblast cytotoxicity, dose response, cytotoxicity control, cell-based, fluorescence, Alamar Blue, secondary assay (AID 2327).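 Also: NIH-3T3 mouse fibroblasts cultured with fluconazole at 8 µg/mL.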 It is filed as functional.
Test [17] is described as follows: Trypanosoma cruzi growth suppression in host cells – NIH3T3 host cells, beta-gal luminescence, confirmation (AID 2044).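 Also: intracellular parasites grown in NIH/3T3 mouse fibroblasts as host cells; luminescent beta-galactosidase reporter signal from transgenic T. cruzi replicating inside host cells; inhibitors lower the luminescence signal.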 Format: functional, cell-based.
The nature of test [18]: NIH3T3 cell viability loss – ATP luminescence, mouse fibroblasts, counter-screen, dose response (AID 2010).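 Also: cells exposed to compound for about 90 hours before reading.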 It is filed as functional, cell-based.
Test [19] in a line: cells.
In test [20] the target is T3, Microphthalmia-associated transcription factor (Homo sapiens, UniProt O75030).
T3 sequence (O75030 whole entry): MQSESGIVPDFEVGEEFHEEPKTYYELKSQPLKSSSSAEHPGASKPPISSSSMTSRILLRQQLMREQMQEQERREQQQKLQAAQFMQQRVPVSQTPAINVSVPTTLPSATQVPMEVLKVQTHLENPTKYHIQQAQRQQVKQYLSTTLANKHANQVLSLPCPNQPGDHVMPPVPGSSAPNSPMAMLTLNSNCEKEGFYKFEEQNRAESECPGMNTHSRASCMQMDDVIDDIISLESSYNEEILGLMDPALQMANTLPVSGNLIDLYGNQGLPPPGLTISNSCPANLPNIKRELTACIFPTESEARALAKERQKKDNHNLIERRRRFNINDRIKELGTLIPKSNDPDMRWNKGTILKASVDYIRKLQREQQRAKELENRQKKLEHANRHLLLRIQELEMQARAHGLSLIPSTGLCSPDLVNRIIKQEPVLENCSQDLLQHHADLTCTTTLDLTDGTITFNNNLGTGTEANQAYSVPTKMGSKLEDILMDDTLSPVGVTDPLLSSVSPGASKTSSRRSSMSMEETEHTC
The test is described as follows: reducers of TRPM1 reporter luminescence, concentration series – cell-based, SK-MEL-5, cherry-picked, set 3, MITF inhibitor project, dose response (AID 493073).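 Also: SK-MEL-5 melanoma cells with luciferase driven by the MITF target TRPM1 promoter.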 It is filed as functional.

Test [21] in a line: fluconazole-exposed Candida albicans growth modulators – fluorescence, retest, confirmation (AID 2467). Format: functional, cell-based.
Test [22] has as its target Protein Wnt-3a (Mus musculus, UniProt P27467). Description: antagonism of Wnt3a pathway luciferase reporter – Wnt-LIGHT cells, luminescence, selectivity assay for Gli-SUFU antagonist project, dose response (AID 651570).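 Also: Wnt-LIGHT reporter cells stimulated with conditioned medium from Wnt3a-producing cells.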 It is filed as functional. The note with it: read-out: IC50_Mean.
The target of test [23] is Kallikrein-7 (Homo sapiens, UniProt P49862). Description: Fluorescence Intensity-based biochemical primary high throughput dose response assay to identify activators of kallikrein-7 (K7) zymogen.
Chain of Kallikrein-7 (P49862 whole entry): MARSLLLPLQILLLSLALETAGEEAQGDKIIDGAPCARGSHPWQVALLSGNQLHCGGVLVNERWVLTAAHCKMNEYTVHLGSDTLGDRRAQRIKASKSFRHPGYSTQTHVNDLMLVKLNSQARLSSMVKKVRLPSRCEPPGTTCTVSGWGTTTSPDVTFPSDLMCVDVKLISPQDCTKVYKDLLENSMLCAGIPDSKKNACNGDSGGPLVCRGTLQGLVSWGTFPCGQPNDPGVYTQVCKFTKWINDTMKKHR
The target in test [24] is T4, Protein Tat (Human immunodeficiency virus type 1 group M subtype B (isolate HXB2)(HIV-1), UniProt P04608).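 Also: tat binding to TAR RNA read out by fluorescence polarization.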
T4 sequence (P04608 whole entry): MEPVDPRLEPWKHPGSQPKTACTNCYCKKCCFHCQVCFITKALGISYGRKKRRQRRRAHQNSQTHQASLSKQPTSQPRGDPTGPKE
Format: functional.

A short description of test [25]: viability loss in THP-1 monocytes – THP-1 cells, cytotoxicity control for Vif-APOBEC3G degradation inhibitor project, dose response (AID 1117359). It is filed as functional. The note with it: THP-1.
Test [26] can be described thus: Dd2 parasite growth inhibition in erythrocytes – SYBR Green, dry powder samples, set 9, dose response (AID 1159568). It is filed as functional, cell-based.

The structures appear in SMILES notation. Active and inactive are the calls of the source.

Chain of Mu-type opioid receptor (P35372 whole entry): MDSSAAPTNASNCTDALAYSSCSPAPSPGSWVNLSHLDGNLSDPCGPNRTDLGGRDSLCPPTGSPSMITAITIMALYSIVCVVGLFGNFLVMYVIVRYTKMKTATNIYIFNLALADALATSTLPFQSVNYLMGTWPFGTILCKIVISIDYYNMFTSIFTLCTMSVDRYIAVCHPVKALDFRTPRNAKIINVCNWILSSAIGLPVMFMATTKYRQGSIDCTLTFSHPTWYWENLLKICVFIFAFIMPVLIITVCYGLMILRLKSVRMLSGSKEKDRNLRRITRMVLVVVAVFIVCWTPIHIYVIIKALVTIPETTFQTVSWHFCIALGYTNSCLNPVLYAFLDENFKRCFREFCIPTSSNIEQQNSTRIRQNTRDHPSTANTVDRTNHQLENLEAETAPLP
T1 sequence (P49327 whole entry): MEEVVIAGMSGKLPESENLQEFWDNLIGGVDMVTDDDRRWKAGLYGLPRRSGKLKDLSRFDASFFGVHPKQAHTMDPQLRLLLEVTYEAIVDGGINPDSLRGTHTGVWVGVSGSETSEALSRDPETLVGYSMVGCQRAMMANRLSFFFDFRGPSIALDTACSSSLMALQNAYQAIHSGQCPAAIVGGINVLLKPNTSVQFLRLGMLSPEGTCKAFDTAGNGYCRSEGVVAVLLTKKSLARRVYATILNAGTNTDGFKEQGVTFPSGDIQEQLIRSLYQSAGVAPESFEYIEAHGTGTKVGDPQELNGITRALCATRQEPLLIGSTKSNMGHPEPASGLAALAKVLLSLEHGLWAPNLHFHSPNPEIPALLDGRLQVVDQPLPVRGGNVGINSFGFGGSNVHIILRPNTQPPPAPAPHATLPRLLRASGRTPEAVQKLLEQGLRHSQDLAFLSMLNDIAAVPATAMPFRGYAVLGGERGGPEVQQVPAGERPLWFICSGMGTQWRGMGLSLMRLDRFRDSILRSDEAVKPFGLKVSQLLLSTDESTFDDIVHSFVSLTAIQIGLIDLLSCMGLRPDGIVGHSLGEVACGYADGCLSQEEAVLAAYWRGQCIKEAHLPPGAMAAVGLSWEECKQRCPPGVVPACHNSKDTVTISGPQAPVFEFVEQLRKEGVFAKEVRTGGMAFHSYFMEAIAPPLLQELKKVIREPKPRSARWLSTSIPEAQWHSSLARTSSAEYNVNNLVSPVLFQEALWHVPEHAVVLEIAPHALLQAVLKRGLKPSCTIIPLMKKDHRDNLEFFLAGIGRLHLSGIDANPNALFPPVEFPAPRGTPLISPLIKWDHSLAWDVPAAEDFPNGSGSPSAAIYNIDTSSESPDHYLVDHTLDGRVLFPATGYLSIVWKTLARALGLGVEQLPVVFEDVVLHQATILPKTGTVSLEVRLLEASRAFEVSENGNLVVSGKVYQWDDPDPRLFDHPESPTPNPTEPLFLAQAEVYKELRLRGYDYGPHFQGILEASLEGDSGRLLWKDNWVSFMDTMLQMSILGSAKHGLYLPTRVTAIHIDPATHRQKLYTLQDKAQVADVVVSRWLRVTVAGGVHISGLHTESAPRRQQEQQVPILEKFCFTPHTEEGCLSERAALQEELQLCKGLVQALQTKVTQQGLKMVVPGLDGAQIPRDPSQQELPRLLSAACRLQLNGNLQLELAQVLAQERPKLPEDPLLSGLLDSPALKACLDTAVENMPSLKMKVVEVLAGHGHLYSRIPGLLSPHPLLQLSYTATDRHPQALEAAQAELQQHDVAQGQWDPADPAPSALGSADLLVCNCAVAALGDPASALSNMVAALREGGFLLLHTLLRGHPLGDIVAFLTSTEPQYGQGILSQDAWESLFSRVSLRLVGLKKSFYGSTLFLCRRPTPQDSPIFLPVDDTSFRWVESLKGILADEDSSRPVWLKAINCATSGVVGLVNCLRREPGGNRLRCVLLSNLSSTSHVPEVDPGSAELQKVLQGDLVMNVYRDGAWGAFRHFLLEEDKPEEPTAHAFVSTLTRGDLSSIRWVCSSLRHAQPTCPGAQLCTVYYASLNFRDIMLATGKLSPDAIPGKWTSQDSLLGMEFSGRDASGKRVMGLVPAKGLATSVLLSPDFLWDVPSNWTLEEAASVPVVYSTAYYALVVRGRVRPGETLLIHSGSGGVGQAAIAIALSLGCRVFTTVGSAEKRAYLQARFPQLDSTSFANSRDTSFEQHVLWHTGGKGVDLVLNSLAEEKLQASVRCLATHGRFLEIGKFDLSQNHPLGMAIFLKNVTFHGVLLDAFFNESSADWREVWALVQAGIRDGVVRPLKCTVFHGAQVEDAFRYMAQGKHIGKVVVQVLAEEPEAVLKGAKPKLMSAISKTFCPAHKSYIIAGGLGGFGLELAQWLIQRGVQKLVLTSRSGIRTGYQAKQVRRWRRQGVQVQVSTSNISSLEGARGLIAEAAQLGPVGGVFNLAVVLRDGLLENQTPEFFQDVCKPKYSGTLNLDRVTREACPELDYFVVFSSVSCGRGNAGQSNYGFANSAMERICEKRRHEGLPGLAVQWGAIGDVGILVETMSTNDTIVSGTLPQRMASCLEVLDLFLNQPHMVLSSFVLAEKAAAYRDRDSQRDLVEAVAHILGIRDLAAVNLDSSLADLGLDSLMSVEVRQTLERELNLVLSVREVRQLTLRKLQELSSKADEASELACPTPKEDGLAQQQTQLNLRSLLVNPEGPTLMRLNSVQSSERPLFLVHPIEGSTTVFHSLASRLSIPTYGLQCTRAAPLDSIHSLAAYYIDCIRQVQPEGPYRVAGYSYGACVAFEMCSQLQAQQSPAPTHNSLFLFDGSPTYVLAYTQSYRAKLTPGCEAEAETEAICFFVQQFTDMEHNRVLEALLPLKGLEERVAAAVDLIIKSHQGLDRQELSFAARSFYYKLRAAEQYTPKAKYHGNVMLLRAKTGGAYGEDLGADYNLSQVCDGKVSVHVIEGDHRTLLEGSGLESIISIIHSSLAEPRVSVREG
Chain of Protein Wnt-3a (P27467 whole entry): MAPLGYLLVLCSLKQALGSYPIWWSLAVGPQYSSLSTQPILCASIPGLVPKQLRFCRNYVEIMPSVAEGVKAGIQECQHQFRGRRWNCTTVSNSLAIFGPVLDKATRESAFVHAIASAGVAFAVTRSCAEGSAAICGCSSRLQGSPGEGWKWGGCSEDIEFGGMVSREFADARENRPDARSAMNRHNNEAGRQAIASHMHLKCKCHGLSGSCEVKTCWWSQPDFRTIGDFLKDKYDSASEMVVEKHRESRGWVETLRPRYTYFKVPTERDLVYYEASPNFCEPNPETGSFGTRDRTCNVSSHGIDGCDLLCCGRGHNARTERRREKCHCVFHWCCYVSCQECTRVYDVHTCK

What is called EC50 is the concentration giving half of the maximal effect. Regarding `Cc1ccc(CN2CCN(c3ccccn3)CC2)s1`, the EC50 is 92.5 µM (inactive) in [1] and 59.3 nM (active) in test [2].

For `CC(=O)c1ccc(OCC(O)CN2CCN(c3ccccn3)CC2)cc1` (centres undefined), the EC50 in [1] is 92.4 µM (inactive); in test [2] it was 865 nM (active).

The term AC50 denotes the midpoint of the concentration-response curve, whichever way the signal moves. As to `CCOc1ccc(N(CC(=O)NCCSCc2ccc(Cl)cc2)S(C)(=O)=O)cc1`, the half-maximal activity concentration (AC50) is 5.88 µM (active) in test [3], 5.62 µM (active) in [4], 9.3 µM (active) in test [5] and 9.39 µM (active) in [6].

As to `O=Cc1cn(Cc2cccc([N+](=O)[O-])c2)c2ccccc12`, the half-maximal activity concentration (AC50) in test [7] was 801 nM (active); in test [8] it was 1.28 µM (active); in test [10] it was 625 nM (active). Further, the IC50 in test [9] is 12 µM (active); in [11], 10.9 µM (active).

`O=C(O)/C=C/C(=O)NCCc1ccc(Cl)cc1`: the figures for the EC50 in test [12] and in [15] were > 29.9 µM (inactive) and 51.7 µM (inactive), respectively. In addition, the IC50 in test [13] and in [14] was > 29.9 µM (inactive) throughout.

On to `Cc1ccn2c(=O)c(C(=O)NCCC3=CCCCC3)c(O)nc2c1`, for which the EC50 in test [12] is > 29.9 µM (inactive); in test [15], 3.44 µM (active). The IC50 in test [13] and in [14] was > 29.9 µM (inactive) in each case.

In the case of `O=C(NC1CCCCC1)C(=S)NCCc1ccccc1`, the EC50 in test [12] was > 29.9 µM (inactive); in [15] it was 2.41 µM (active). Further, the figures for the IC50 in [13] and in [14] were 5.49 µM (active) and > 29.9 µM (inactive), respectively.

Turning to `OC(COCc1cccs1)CN1CCN(c2ccccn2)CC1` (centres undefined), the EC50 was 92.5 µM (inactive) in test [1] and 637 nM (active) in [2].

`CCOc1ccc(-c2cc(C)[n+](CCO)c(-c3ccc(OCC)cc3)c2)cc1.[O-][Cl+3]([O-])([O-])[O-]`: the EC50 in test [16] was > 160 µM (inactive); in [17], < 100 nM (active); in test [18], > 60 µM (inconclusive); in test [19], 79 nM (active); in test [21], > 38 µM (not active). Moreover, the AC50 in test [20] is 11.1 µM (active). The IC50 in test [22] is 50 µM (inactive).

For the molecule `CC1(C(=O)NCc2cccc3ccccc23)CCN1Cc1ccc(-c2ccccc2)o1` (centres undefined), the half-maximal activity concentration (AC50) in test [3] was 2.57 µM (active); in test [4], 2.31 µM (active); in [5], 4.71 µM (active); in [6] it was 4.07 µM (active).

For the molecule `C[C@H](O)[C@@H]1C(=O)N2CCc3c([nH]c4ccccc34)[C@@H]2C[C@@H]1N(C)S(=O)(=O)c1ccccc1`, the EC50 in [23] is 7.44 µM (active).

With `Cc1ccc(/C=N/c2ccccc2C(N)=O)cc1`, the EC50 in [23] is > 69.5 µM (inactive).

What is called CC50 is the concentration at which the toxic effect on the cells reaches its halfway point. For the molecule `CCC(/C=C(\O)c1ccncc1)=N\c1ccc(O)cc1`, in test [24], the IC50 is 18.3 µM (inconclusive). Also, the 50% cytotoxic concentration (CC50) in [25] was > 40 µM (active).

For the molecule `COc1ccc(NC(=O)N(C)C[C@H]2Oc3c(NC(=O)CCCCCC(=O)Nc4ccccc4N)cccc3C(=O)N([C@H](C)CO)C[C@H]2C)cc1`, the AC50 in [26] was 0.304 µM (active).

On to `COc1ccccc1C#Cc1ccc([C@@H]2[C@@H](CO)N3CCCCN(C(=O)C4CCC4)C[C@H]23)cc1`, for which, in test [26], the AC50 is 8.41 µM (active).
